# Tests used:
# [1] = tested on: Symmetric di-Methyl Arginine in Z-138 cells; assay: Z-138 Methylation Assay (In Cell Western for symmetric di-methyl arginine); type: cell-based; conditions: Homo sapiens, 96 hours incubation, symmetric di-methyl arginine normalised to DNA content, read-out: ICW EC50
# Excerpt: Z-138 suspension cells were purchased from ATCC (American Type Culture Collection, Manassas, Va.). RPMI/Glutamax medium, penicillin-streptomycin, heat inactivated fetal bovine serum, and D-PBS were purchased from Life Technologies, Grand Island, N.Y., USA. Odyssey blocking buffer, 800CW goat anti-rabbit IgG (H+L) antibody, and Licor Odyssey infrared scanner were purchased from Licor Biosciences, Lincoln, Nebr., USA. Symmetric di-methyl arginine antibody was purchased from EMD Millipore, Billerica, Mass., USA. 16% Paraformaldehyde was purchased from Electron Microscopy Sciences, Hatfield, Pa., USA.
# Z-138 suspension cells were maintained in growth medium (RPMI 1640 supplemented with 10% v/v heat inactivated fetal bovine serum and 100 units/mL penicillin-streptomycin) and cultured at 37° C. under 5% CO2.
# Cell Treatment, In Cell Western (ICW) for detection of Symmetric di-Methyl Arginine and DNA content.
# Z-138 cells were seeded in assay medium at a concentration of 50,000 cells per mL to a 384-well cell culture plate with 50 μL per well. Compound (100 nL) from 384 well source plates was added directly to 384 well cell plate. Plates were incubated at 37° C., 5% CO2 for 96 hours. After four days of incubation, 40 μL of cells from incubated plates were added to poly-D-lysine coated 384 well culture plates (BD Biosciences 356697). Plates were incubated at room temperature for 30 minutes then incubated at 37° C., 5% CO2 for 5 hours. After the incubation, 40 μL per well of 8% paraformaldehyde in PBS (16% paraformaldahyde was diluted to 8% in PBS) was added to each plate and incubated for 30 minutes. Plates were transferred to a Biotek 405 plate washer and washed 5 times with 100 μL per well of wash buffer (IX PBS with 0.1% Triton X-100 (v/v)). Next […] well of Odyssey blocking buffer were added to each plate and incubated 1 hour at room temperature. Blocking buffer was removed and 20 μL per well of primary antibody was added (symmetric di-methyl arginine diluted 1:100 in Odyssey buffer with 0.1% Tween 20 (v/v)) and plates were incubated overnight (16 hours) at 4° C. Plates were washed 5 times with 100 μL per well of wash buffer. Next 20 μL per well of secondary antibody was added (1:200 800CW goat anti-rabbit IgG (H+L) antibody, 1:1000 DRAQ5 (Biostatus limited) in Odyssey buffer with 0.1% Tween 20 (v/v)) and incubated for 1 hour at room temperature. The plates were washed 5 times with 100 μL per well wash buffer then 1 time with 100 μL per well of water. Plates were allowed to dry at room temperature then imaged on the Licor Odyssey machine which measures integrated intensity at 700 nm and 800 nm wavelengths. Both 700 and 800 channels were scanned.
# First, the ratio for each well was determined by:
# Each plate included fourteen control wells of DMSO only treatment (minimum inhibition) as well as fourteen control wells for maximum inhibition treated with 3 μM of a reference compound (Background wells). The average of the ratio values for each control type was calculated and used to determine the percent inhibition for each test well in the plate. Reference compound was serially diluted three-fold in DMSO for a total of nine test concentrations, beginning at 3 μM. Percent inhibition was determined and IC50 curves were generated using triplicate wells per concentration of compound.
# Z-138 cell line = assay: Z-138 Proliferation Assay (Cell Titer Glo); type: cell-based; conditions: Homo sapiens, 120 h; Z-138 cells, 5 days incubation, ATP (Cell Titer Glo)
# Excerpt: Z-138 Proliferation Assay
# Z-138 suspension cells were purchased from ATCC (American Type Culture Collection, Manassas, Va.). RPMI/Glutamax medium, penicillin-streptomycin, heat inactivated fetal bovine serum were purchased from Life Technologies, Grand Island, N.Y., USA. V-bottom polypropylene 384-well plates were purchased from Greiner Bio-One, Monroe, N.C., USA. Cell culture 384-well white opaque plates were purchased from Perkin Elmer, Waltham, Mass., USA. Cell-Titer Glo® was purchased from Promega Corporation, Madison, Wis., USA. SpectraMax M5 plate reader was purchased from Molecular Devices LLC, Sunnyvale, Calif., USA.
# Z-138 suspension cells were maintained in growth medium (RPMI 1640 supplemented with 10% v/v heat inactivated fetal bovine serum and cultured at 37° C. under 5% CO2. Under assay conditions, cells were incubated in assay medium (RPMI 1640 supplemented with 10% v/v heat inactivated fetal bovine serum and 100 units/mL penicillin-streptomycin) at 37° C. under 5% CO2.
# For the assessment of the effect of compounds on the proliferation of the Z-138 cell line, exponentially growing cells were plated in 384-well white opaque plates at a density of 10,000 cells/ml in a final volume of 50 μl of assay medium. A compound source plate was prepared by performing triplicate nine-point 3-fold serial dilutions in DMSO, beginning at 10 mM (final top concentration of compound in the assay was 20 μM and the DMSO was 0.2%). A 100 nL aliquot from the compound stock plate was added to its respective well in the cell plate. […] After addition of compounds, assay plates were incubated for 5 days at 37° C., 5% CO2, relative humidity >90%.
# Cell viability was measured by quantitation of ATP present in the cell cultures, adding 35 μl of Cell Titer Glo® reagent to the cell plates. Luminescence was read in the SpectraMax M5 microplate reader. The concentration of compound inhibiting cell viability by 50% was determined using a 4-parametric fit of the normalized dose response curves.
Compound,EC50 [1],EC50 (Z-138 cell line)
CC(=O)N1CC(Nc2cc(C(=O)NC[C@H](O)CN3CCc4cn[nH]c4C3)ncn2)C1 [Compound 3-44],> 1 µM,> 5 µM
"Cc1nc2c(s1)CN(C[C@@H](O)CNC(=O)c1cc(NC3COC3)ncn1)CC2 [Compound 1-8, (S)—N-(2-hydroxy-3-(2-methyl-6,7-dihydrothiazolo[5,4-c]pyridin-5(4H)-yl)propyl)-6-(oxetan-3-ylamino)pyrimidine-4-carboxamide]",> 1 µM,> 5 µM
"CC(=O)N1CCC(Nc2cc(C(=O)NC[C@H](O)CN3CCc4ncccc4C3)ccn2)CC1 [Compound 2-20, (S)-2-((1-acetylpiperidin-4-yl)amino)-N-(3-(7,8-dihydro-1,6-naphthyridin-6(5H)-yl)-2-hydroxypropyl)isonicotinamide]",0.101 to 1 µM,> 5 µM
"CC(=O)N1CCC(Nc2cc(C(=O)NC[C@H](O)CN3CCc4c(ncn4C)C3)ncn2)CC1 [Compound 3-35, (S)-6-((1-acetylpiperidin-4-yl)amino)-N-(2-hydroxy-3-(1-methyl-6,7-dihydro-1H-imidazo[4,5-c]pyridin-5(4H)-yl)propyl)pyrimidine-4-carboxamide]",> 1 µM,> 5 µM
Cn1ncc2c1CCCN2C[C@@H](O)CNC(=O)c1cc(NC2COC2)ncn1 [Compound 3-40],> 1 µM,> 5 µM
Cc1nc2c([nH]1)CCN(C[C@@H](O)CNC(=O)c1cc(NC3COC3)ncn1)C2 [Compound 3-41],> 1 µM,> 5 µM
CC(=O)N1CC(Nc2cc(C(=O)NC[C@H](O)CN3CCc4cccnc4C3)ncn2)C1 [Compound 2-13],0.101 to 1 µM,1 to 10 µM
"CC(=O)N1CCC(Nc2cc(C(=O)NC[C@H](O)CN3CCc4oc(C)nc4C3)ncn2)CC1 [Compound 4-3, (S)-6-((1-acetylpiperidin-4-yl)amino)-N-(2-hydroxy-3-(2-methyl-6,7-dihydrooxazolo[4,5-c]pyridin-5(4H)-yl)propyl)pyrimidine-4-carboxamide]",> 1 µM,> 5 µM
CC(=O)N1CC(Nc2cc(C(=O)NC[C@H](O)CN3CCc4sc(N)nc4C3)ncn2)C1 [Compound 1-28],> 1 µM,> 5 µM
"Cn1cnc2c1CN(C[C@@H](O)CNC(=O)c1cc(NC3COC3)ncn1)CC2 [Compound 3-26, (S)—N-(2-hydroxy-3-(3-methyl-6,7-dihydro-3H-imidazo[4,5-c]pyridin-5(4H)-yl)propyl)-6-(oxetan-3-ylamino)pyrimidine-4-carboxamide]",> 1 µM,> 5 µM
CC(=O)N1CC(Nc2cc(C(=O)NC[C@H](O)CN3CCc4nc(N)sc4C3)ncn2)C1 [Compound 1-29],> 1 µM,> 5 µM
"O=C(NC[C@H](O)CN1CCc2ncsc2C1)c1cc(NC2COC2)ncn1 [Compound 1-16, (S)—N-(3-(6,7-dihydrothiazolo[5,4-c]pyridin-5(4H)-yl)-2-hydroxypropyl)-6-(oxetan-3-ylamino)pyrimidine-4-carboxamide]",> 1 µM,> 5 µM
CC(=O)N1CC(Nc2cc(C(=O)NC[C@H](O)CN3CCc4c(ncn4C)C3)ncn2)C1 [Compound 3-45],> 1 µM,> 5 µM
CC(=O)N1CCC(Nc2cc(C(=O)NC[C@H](O)CN3CCc4cn[nH]c4C3)ncn2)CC1 [Compound 3-51],> 1 µM,> 5 µM
CC(=O)N1CC(Nc2cc(C(=O)NC[C@H](O)CN3CCCc4c3cnn4C)ncn2)C1 [Compound 3-46],> 1 µM,> 5 µM
"CC(=O)N1CCC(Nc2cc(C(=O)NC[C@H](O)CN3CCc4ncsc4C3)ccn2)CC1 [Compound 1-19, (S)-2-((1-acetylpiperidin-4-yl)amino)-N-(3-(6,7-dihydrothiazolo[5,4-c]pyridin-5(4H)-yl)-2-hydroxypropyl)isonicotinamide]",> 1 µM,> 5 µM
CC(=O)N1CCC(Nc2cc(C(=O)NC[C@H](O)CN3CCc4sc(N)nc4C3)ccn2)CC1 [Compound 1-34],> 1 µM,> 5 µM

# — US20170210751A1, “PRMT5 INHIBITORS AND USES THEREOF” (Epizyme, Inc., priority 2014, published 2017)
